Measurements from ChEMBL document CHEMBL5537180, “Discovery of Novel Aminobutanoic Acid-Based ASCT2 Inhibitors for the Treatment of Non-Small-Cell Lung Cancer” (J Med Chem, 2024).
Activity calls are given as the source filed them. The calls are words filed in the database; no cut-off is given here.

What was measured:
[1] = Toxicity in BALB/c nude mouse assessed as effect on liver at 25 to 50 mg/kg, ip measured after 3 weeks by H and E staining based analysis; type: organism-based; settings: in vivo, 504 h, dose 25-50 mg/kg
A549 [2] = test: Inhibition of AKT/mTORC signalling in human A549 cells assessed as decrease in mTORC1 level at 5 to 10 uM measured after 24 hrs by Western blot analysis; type: cell-based; settings: dose 5-10 µM
[3] = Metabolic stability in rat liver microsomes assessed as intrinsic clearance; type: ADME, Microsome; settings: read-out: CLH
[4] = Half life in Sprague-Dawley rat at 10 mg/kg, ip incubated for 24 hrs by LC-MS/MS analysis; type: ADME, organism-based; settings: in vivo
A549 [5] = test: Induction of autophagy in human A549 cells assessed as downregulation of ERK expression at 5 to 10 uM measured after 24 hrs by Western blot analysis; type: functional, cell-based; settings: dose 5-10 µM
A549 [6] = test: Inhibition of Gln uptake in human A549 cells assessed as reduction in malate level incubated for 24 hrs by LC-MS/MS analysis; type: functional, cell-based
[7] = Cmax in Sprague-Dawley rat at 10 mg/kg, ip incubated for 24 hrs by LC-MS/MS analysis; type: ADME, organism-based; settings: in vivo
Cell membrane [8] = test: Induction of mitochondrial membrane potential loss in human A549 cells assessed as […] aggregates at 10 uM incubated for 24 hrs by JC-1 staining based flow cytometry analysis (reference value: 93.8%); type: cell membranes
A549 [9] = test: Induction of apoptosis in human A549 cells assessed as caspase 3 activation at 5 to 10 uM incubated for 24 hrs by Western blot analysis; type: functional, cell-based; settings: dose 5-10 µM
[10] = Apparent clearance in Sprague-Dawley rat at 10 mg/kg, ip incubated for 24 hrs by LC-MS/MS analysis; type: ADME, organism-based; settings: in vivo
[11] = Toxicity in BALB/c nude mouse assessed as effect on kidney at 25 to 50 mg/kg, ip measured after 3 weeks by H and E staining based analysis; type: organism-based; settings: in vivo, 504 h, dose 25-50 mg/kg
Cell membrane [12] = test: Induction of mitochondrial membrane potential loss in human A549 cells assessed as […] aggregates at 5 uM incubated for 24 hrs by JC-1 staining based flow cytometry analysis (reference value: 93.8%); type: cell membranes
[13] = biological target: T1, Neutral amino acid transporter B(0) (Homo sapiens) (UniProt Q15758); test: Inhibition of ASCT2 in HEK293 cells assessed as reduction in [13C]-Gln uptake at 50 uM relative to control; type: cell-based
T1 sequence (whole entry): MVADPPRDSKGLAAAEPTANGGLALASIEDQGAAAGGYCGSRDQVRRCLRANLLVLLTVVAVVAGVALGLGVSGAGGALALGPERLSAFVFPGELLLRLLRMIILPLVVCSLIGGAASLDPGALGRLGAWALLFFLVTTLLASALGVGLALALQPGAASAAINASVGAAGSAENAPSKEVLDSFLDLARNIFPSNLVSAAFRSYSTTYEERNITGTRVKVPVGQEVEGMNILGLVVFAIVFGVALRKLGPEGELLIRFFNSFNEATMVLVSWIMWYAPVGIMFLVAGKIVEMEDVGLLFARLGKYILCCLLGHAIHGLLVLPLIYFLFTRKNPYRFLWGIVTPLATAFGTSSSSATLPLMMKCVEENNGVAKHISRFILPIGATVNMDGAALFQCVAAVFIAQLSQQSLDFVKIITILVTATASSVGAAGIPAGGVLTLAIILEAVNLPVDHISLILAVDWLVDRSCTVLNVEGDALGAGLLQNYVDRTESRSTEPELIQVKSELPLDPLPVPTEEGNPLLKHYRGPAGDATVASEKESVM

A549 [14] = test: Induction of apoptosis in human A549 cells assessed as downregulation of c-Myc expression at 5 to 10 uM incubated for 24 hrs by Western blot analysis; type: functional, cell-based; settings: dose 5-10 µM
A549 [15] = test: Inhibition of Gln uptake in human A549 cells assessed as reduction in citrate level incubated for 24 hrs by LC-MS/MS analysis; type: functional, cell-based
A549 [16] = test: Inhibition of AKT/mTORC signalling in human A549 cells assessed as decrease in AKT phosphorylation level at 5 to 10 uM measured after 24 hrs by Western blot analysis; type: cell-based; settings: dose 5-10 µM
[17] = AUC (0 to infinity) in Sprague-Dawley rat at 10 mg/kg, ip incubated for 24 hrs by LC-MS/MS analysis; type: ADME, organism-based; settings: in vivo
A549 [18] = test: Inhibition of Gln uptake in human A549 cells assessed as reduction in fumarate level incubated for 24 hrs by LC-MS/MS analysis; type: functional, cell-based
A549 [19] = test: Inhibition of Gln uptake in human A549 cells assessed as reduction in succinate level incubated for 24 hrs by LC-MS/MS analysis; type: functional, cell-based
NSCLC [20] = test: Antiproliferative activity against human NSCLC cells cultured as H1975 organoids assessed as cell viability incubated for 96 hrs by Celltiter-glo viability assay; type: functional, cell-based
[21] = AUC (0 to t) in Sprague-Dawley rat at 10 mg/kg, ip incubated for 24 hrs by LC-MS/MS analysis; type: ADME, organism-based; settings: in vivo
A549 [22] = test: Inhibition of Gln uptake in human A549 cells assessed as reduction in intracellular glutamate level incubated for 24 hrs by LC-MS/MS analysis; type: functional, cell-based
[23] = biological target: T1, Neutral amino acid transporter B(0) (Homo sapiens); test: Inhibition of ASCT2 in human A549 cells assessed as reduction in [13C]-Gln uptake at 50 uM relative to control; type: cell-based
[24] = Toxicity in BALB/c nude mouse assessed as effect on lung at 25 to 50 mg/kg, ip measured after 3 weeks by H and E staining based analysis; type: organism-based; settings: in vivo, 504 h, dose 25-50 mg/kg
Cell membrane [25] = test: Induction of mitochondrial membrane potential loss in human A549 cells assessed as […] aggregates incubated for 24 hrs by JC-1 staining based flow cytometry analysis; type: cell membranes; settings: dose 5-10 µM
NSCLC [26] = test: Antiproliferative activity against human NSCLC cells cultured as 2422 organoids assessed as cell viability incubated for 96 hrs by Celltiter-glo viability assay; type: functional, cell-based
[27] = MRT (0 to infinity) in Sprague-Dawley rat at 10 mg/kg, ip incubated for 24 hrs by LC-MS/MS analysis; type: ADME, organism-based; settings: in vivo
A549 [28] = test: Inhibition of colony formation in human A549 cells measured after 7 to 10 days by crystal violet staining analysis; type: functional, cell-based; settings: dose 5-10 µM, time 7-10 day
[29] = Toxicity in BALB/c nude mouse assessed as effect on body weight at 25 to 50 mg/kg, ip measured daily for 3 weeks; type: organism-based; settings: in vivo, 504 h, dose 25-50 mg/kg
[30] = biological target: Large neutral amino acids transporter small subunit 1 (Homo sapiens) (UniProt Q01650); test: Inhibition of LAT1 (unknown origin) overexpressed in human A549 cells assessed as reduction in [13C]-Gln uptake preincubated for 5 mins followed by substrate addition and measured after 15 mins; type: cell-based; settings: time 20.0 min
Large neutral amino acids transporter small subunit 1 (Homo sapiens), sequence (Q01650 whole entry): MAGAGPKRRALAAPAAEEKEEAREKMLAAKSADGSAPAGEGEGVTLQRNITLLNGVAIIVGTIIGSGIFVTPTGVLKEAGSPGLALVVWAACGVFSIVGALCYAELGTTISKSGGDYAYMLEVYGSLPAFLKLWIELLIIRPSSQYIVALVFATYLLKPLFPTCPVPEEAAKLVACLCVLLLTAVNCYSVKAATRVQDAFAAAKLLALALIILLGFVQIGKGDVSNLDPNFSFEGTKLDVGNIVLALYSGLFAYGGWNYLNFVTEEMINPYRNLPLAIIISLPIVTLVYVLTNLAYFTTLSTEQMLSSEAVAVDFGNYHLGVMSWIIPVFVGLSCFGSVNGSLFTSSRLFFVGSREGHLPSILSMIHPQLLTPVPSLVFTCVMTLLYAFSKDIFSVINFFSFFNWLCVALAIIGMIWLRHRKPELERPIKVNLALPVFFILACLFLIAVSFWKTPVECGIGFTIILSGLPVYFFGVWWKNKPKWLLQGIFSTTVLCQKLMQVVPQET

A549 [31] = test: Induction of oxidative stress in human A549 cells assessed as upregulation of ROS production incubated for 24 hrs by DCFH-DA staining based flow cytometry analysis; type: functional, cell-based; settings: dose 5-10 µM
A549 [32] = test: Inhibition of AKT/mTORC signalling in human A549 cells assessed as decrease in p70S6K level at 5 to 10 uM measured after 24 hrs by Western blot analysis; type: cell-based; settings: dose 5-10 µM
[33] = Tmax in Sprague-Dawley rat at 10 mg/kg, ip incubated for 24 hrs by LC-MS/MS analysis; type: ADME, organism-based; settings: in vivo

SMILES	Activity [1]	inhibition (A549 [2])	microsomal CLint [3] [µL/min/mg]	half-life [4] [h]	Activity (A549 [5])	inhibition (A549 [6])	Cmax [7] [ng/mL]	Activity (Cell membrane [8]) [%]	Activity (A549 [9])	CL/F [10] [mL/min/kg]	Activity [11]	Activity (Cell membrane [12]) [%]	inhibition [13] [%]	Activity (A549 [14])	inhibition (A549 [15])	inhibition (A549 [16])	AUC(0-inf) [17] [ng·h/mL]	inhibition (A549 [18])	inhibition (A549 [19])	IC50 (NSCLC [20]) [µM]	further results
N[C@@H](CCN(Cc1ccccc1OCC#Cc1ccc(Cl)cc1)Cc1ccccc1OCC#Cc1ccc(Cl)cc1)C(=O)O	Toxic	Active	37.5	9.41	Active	Active	323	82.4	Active	60.5	Toxic	87.8	93.2	Active	Active	Active	2820	Active	Active	8.45	AUC(0-t) at 24 h [21]: 2670 ng·h/mL; inhibition (A549 [22]): Active; inhibition [23]: 90.8%; Activity [24]: Toxic; Activity (Cell membrane [25]): Dose-Dependent Effect; IC50 (NSCLC [26]): 7.34 µM; MRT inf [27]: 13.7 h; inhibition (A549 [28]): Dose-Dependent Effect; Activity [29]: Non-Toxic; inhibition [30]: inactive; Activity (A549 [31]): Dose-Dependent Effect; inhibition (A549 [32]): Active; Tmax [33]: 1.17 h
CC(C)(C)c1ccc(OCC#Cc2ccccc2)c(CN(CC[C@H](N)C(=O)O)Cc2cc(C(C)(C)C)ccc2OCC#Cc2ccccc2)c1	Toxic	Active	8.27	19.4	Active	Active	874	60.3	Active	12	Toxic	76.1	98.3	Active	Active	Active	14500	Active	Active	1.09	AUC(0-t) at 24 h [21]: 13800 ng·h/mL; inhibition (A549 [22]): Active; inhibition [23]: 55.6%; Activity [24]: Toxic; Activity (Cell membrane [25]): Dose-Dependent Effect; IC50 (NSCLC [26]): 0.12 µM; MRT inf [27]: 20.7 h; inhibition (A549 [28]): Dose-Dependent Effect; Activity [29]: Non-Toxic; inhibition [30]: inactive; Activity (A549 [31]): Dose-Dependent Effect; inhibition (A549 [32]): Active; Tmax [33]: 5.33 h
